Patent publication US10000582B2, “Ethylsulfonated hyaluronic acid biopolymers and methods of use thereof” (The Regents of the University of California, priority 2013, dated 2018)

Tested on: platelets (platelet rich plasma)
Assay: Platelet adhesion assay (SEM imaging)
Format: cell-based
Text: Platelet adhesion experiments were visualized by scanning electron microscope (SEM) imaging (FIG. 7).

In the case of heparin, the “platelet aggregation on the material” value is reported as “no aggregation of platelets”.
